# Assay results from patent US7935670B2, “Hepatitis C virus inhibitors” (Bristol-Myers Squibb Company, priority 2006, dated 2011).
# Like-named read-outs stand apart in the source and are kept apart here.
# Molecular target: T1, HCV NS3/4A protease complex, BMS strain (UniProt P27958, species not given/STRAIN_BMS)
# T1 construct: given for H77 and J4L6S, not expressly for BMS; fused on or other part: three-lysine solubilising tail at the end of NS4A (given for the H77 and J4L6S constructs)
# Experiment: FRET peptide assay to monitor HCV NS3/4A proteolytic activity (BMS strain)
# Assay type: biochemical, HCV genotype 1a
# Source text: HCV NS3 protease complexes, derived from the BMS strain, H77 strain or J4L6S strain, were generated, as described below. These purified recombinant proteins were generated for use in a homogeneous assay (see below) to provide an indication of how effective compounds of the present disclosure would be in inhibiting HCV NS3 proteolytic activity.
# Serum from an HCV-infected patient was obtained from Dr. T. Wright, San Francisco Hospital. An engineered full-length cDNA (compliment deoxyribonucleic acid) template of the HCV genome (BMS strain) was constructed from DNA fragments obtained by reverse transcription-PCR(RT-PCR) of serum RNA (ribonucleic acid) and using primers selected on the basis of homology between other genotype 1a strains. From the determination of the entire genome sequence, a genotype 1a was assigned to the HCV isolate according to the classification of Simmonds et al. (See P Simmonds, K A Rose, S Graham, S W Chan, F McOmish, B C Dow, E A Follett, P L Yap and H Marsden, J. Clin. Microbiol., 31(6), 1493-1503 (1993)). […] The infectious clones, H77 (1a genotype) and J4L6S (1b genotype) were obtained from R. Purcell (NIH) and the sequences are published in Genbank (AAB67036, see Yanagi, M., Purcell, R. H., Emerson, S. U. and Bukh, J. Proc. Natl. Acad. Sci. U.S.A. 94(16), 8738-8743 (1997); AF054247, see Yanagi, M., St Claire, M., Shapiro, M., Emerson, S. U., Purcell, R. H. and Bukh, J, Virology 244 (1), 161-172. (1998)).
# NS3/4A protease complex-containing fractions were pooled and loaded on a desalting column Superdex-S200 pre-equilibrated with buffer D (25 mM HEPES, pH 7.5, 20% glycerol, 300 mM NaCl, 0.2% Triton X-100, 10 mM βME). Sample was loaded at a flow rate of 1 mL/min. NS3/4A protease complex-containing fractions were pooled and concentrated to approximately 0.5 mg/ml. The purity of the NS3/4A protease complexes, derived from the BMS, H77 and J4L6S strains, were judged to be greater than 90% by SDS-PAGE and mass spectrometry analyses. The enzyme was stored at −80° C., thawed on ice and diluted prior to use in assay buffer.
# The purpose of this in vitro assay was to measure the inhibition of HCV NS3 protease complexes, derived from the BMS strain, H77 strain or J4L6S strain, as described above, by compounds of the present disclosure. This assay provides an indication of how effective compounds of the present disclosure would be in inhibiting HCV NS3 proteolytic activity.
# In order to monitor HCV NS3/4A protease activity, an NS3/4A peptide substrate was used. The substrate was RET S1 (Resonance Energy Transfer Depsipeptide Substrate; AnaSpec, Inc. cat #22991)(FRET peptide), described by Taliani et al. in Anal. Biochem. 240(2):60-67 (1996). The sequence of this peptide is loosely based on the NS4A/NS4B natural cleavage site for the HCV NS3 protease except there is an ester linkage rather than an amide bond at the cleavage site. The peptide also contains a fluorescence donor, EDANS, near one end of the peptide and an acceptor, DABCYL, near the other end. The fluorescence of the peptide is quenched by […] resonance energy transfer (RET) between the donor and the acceptor, but as the NS3 protease cleaves the peptide the products are released from RET quenching and the fluorescence of the donor becomes apparent.
# The peptide substrate was incubated with one of the three recombinant NS3/4A protease complexes, in the absence or presence of a compound of the present disclosure. The inhibitory effects of a compound were determined by monitoring the formation of fluorescent reaction product in real time using a Cytofluor Series 4000.
# Assay buffer: 50 mM HEPES, pH 7.5; 0.15 M NaCl; 0.1% Triton; 15% Glycerol; 10 mM βME. Substrate: 2 μM final concentration (from a 2 mM stock solution in DMSO stored at −20° C.). HCV NS3/4A protease type 1a (1b), 2-3 nM final concentration (from a 5 μM stock solution in 25 mM HEPES, pH 7.5, 20% glycerol, 300 mM NaCl, 0.2% Triton-X100, 10 mM βME). […]
# T1 sequence (P27958 1027-1657, change not shown, one chain of several): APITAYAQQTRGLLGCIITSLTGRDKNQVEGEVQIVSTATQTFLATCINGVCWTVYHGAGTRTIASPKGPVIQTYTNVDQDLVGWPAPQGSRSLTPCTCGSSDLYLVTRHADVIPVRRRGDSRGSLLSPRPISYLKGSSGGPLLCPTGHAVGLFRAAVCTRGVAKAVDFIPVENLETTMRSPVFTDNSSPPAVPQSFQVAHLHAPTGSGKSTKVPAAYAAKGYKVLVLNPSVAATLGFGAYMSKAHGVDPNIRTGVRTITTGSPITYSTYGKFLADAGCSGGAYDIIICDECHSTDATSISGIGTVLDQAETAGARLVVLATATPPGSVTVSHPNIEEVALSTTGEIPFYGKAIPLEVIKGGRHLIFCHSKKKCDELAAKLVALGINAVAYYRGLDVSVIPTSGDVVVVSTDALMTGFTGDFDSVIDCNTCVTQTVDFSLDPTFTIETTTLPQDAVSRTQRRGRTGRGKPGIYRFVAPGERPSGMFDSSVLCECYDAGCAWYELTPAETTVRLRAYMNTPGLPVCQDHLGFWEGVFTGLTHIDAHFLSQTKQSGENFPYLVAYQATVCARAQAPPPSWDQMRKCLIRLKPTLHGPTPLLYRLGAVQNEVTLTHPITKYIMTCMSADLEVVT
smiles,measurement,setting,value
C=C[C@@H]1C[C@]1(NC(=O)[C@@H]1C[C@@H](OC(=O)c2ccccc2)CN1C(=O)[C@@H](NC(=O)OC(C)(C)C)C(C)(C)C)C(=O)NS(=O)(=O)C1CC1 [Compound 1],IC50,"read-out: Activity Range (IC50), NS3/4A BMS strain",1 to 50 nM
same,IC50,"read-out: IC50 against the NS3/4A BMS strain in the enzyme assay, BMS strain",13 nM
